Assay results from PMC8365602 (Journal of Medicinal Chemistry, 2021).

Tests used:
human recombinant sEH = biological target: T1, human recombinant sEH (Homo sapiens, UniProt P34913); experiment: sEH activity; type: biochemical
T1 construct: made in house; host or cells: Sf9 insect cells (recombinant baculovirus)
Description: Human recombinant sEH was expressed in Sf9 insect cells and purified by affinity chromatography.[83] Briefly, Sf9 cells were infected with a recombinant baculovirus and lysed after 72 h in 50 mM NaHPO4 pH 8, 300 mM NaCl, 10% glycerol, 1 mM EDTA, 1 mM phenylmethanesulfonyl fluoride, 10 μg/mL leupeptin, and 60 μg/mL STI by sonication (3 × 10 s, 4 °C). […] Elution with 4-fluorochalcone oxide in PBS pH 7.4 with 1 mM dithiothreitol and 1 mM EDTA yielded sEH, which was dialyzed and concentrated.
Purified sEH (60 ng) in 25 mM Tris HCl pH 7 with 0.1 mg/mL bovine serum albumin (BSA) was preincubated with the vehicle (DMSO) or 27a for 10 min at room temperature. The sEH substrate PHOME (50 μM, Cayman Chemicals) was added to start the enzymatic reaction, which was stopped after 60 min in darkness by addition of ZnSO4 (200 mM). The formation of the fluorescent product 6-methoxynaphtaldehyde was measured using a NOVOstar fluorescence microplate reader (BMG Labtech, Ortenberg, Germany), with excitation at 330 and emission at 465 nm.

COX-1 = biological target: T2, COX-1 (Homo sapiens, UniProt P23219); experiment: Platelet COX-1 activity (12-HHT formation); type: cell-based
T2 construct: Freshly isolated platelets (1 × 10^8) were preincubated with vehicle (DMSO) or 27a; endogenous in cells; host or cells: freshly isolated human platelets
T2 sequence (P23219 24-599): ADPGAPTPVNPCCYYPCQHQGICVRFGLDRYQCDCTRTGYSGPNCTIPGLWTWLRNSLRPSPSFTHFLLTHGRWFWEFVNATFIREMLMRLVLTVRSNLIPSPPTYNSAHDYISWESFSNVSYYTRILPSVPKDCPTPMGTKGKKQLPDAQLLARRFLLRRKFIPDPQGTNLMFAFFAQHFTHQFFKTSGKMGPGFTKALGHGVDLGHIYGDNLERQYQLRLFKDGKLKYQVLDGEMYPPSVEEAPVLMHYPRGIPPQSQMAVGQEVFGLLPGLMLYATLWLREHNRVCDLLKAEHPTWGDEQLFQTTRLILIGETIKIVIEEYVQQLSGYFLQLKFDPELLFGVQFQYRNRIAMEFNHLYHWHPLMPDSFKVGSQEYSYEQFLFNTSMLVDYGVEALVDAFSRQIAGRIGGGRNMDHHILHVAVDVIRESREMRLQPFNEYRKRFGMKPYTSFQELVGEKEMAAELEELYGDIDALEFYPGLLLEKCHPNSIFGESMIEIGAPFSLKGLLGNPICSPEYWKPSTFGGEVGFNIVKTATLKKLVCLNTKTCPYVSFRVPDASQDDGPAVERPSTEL
Description: Freshly isolated platelets (1 × 10^8) were preincubated with vehicle (DMSO) or 27a for 5 min at room temperature. Arachidonic acid (5 μM) was added to induce 12-HHT formation.

human keratinocytes = experiment: Keratinocyte cytotoxicity (MTT) in the RHE model; type: cell-based; details: MTT assay
Description: Compound 27a was evaluated in an inflammatory model of RHE by Synelvia S.A.S. (Labège, France) according to the company’s protocol.[88] In brief, primary human keratinocytes were used to generate RHE on polycarbonate filters as described.[88] RHE was allowed to acclimate for 6 days (5% CO2, 37 °C) prior to incubation with 27a (5, 10, 25 μM), dexamethasone (1 μM), or vehicle (0.05% DMSO), and a proinflammatory cytokine cocktail for 4 days at 5% CO2 and 37 °C. The culture medium including compounds and cytokines was changed on days 6, 8, and 10. Each culture condition was repeated three times. Acute cytotoxicity of 27a was excluded at the concentrations studied within 24 h by measuring the mitochondrial dehydrogenase activity (MTT assay).

ovine COX-1 = biological target: T3, ovine COX-1 (Ovis aries, UniProt P05979); experiment: Isolated COX-1 activity; type: biochemical
T3 construct: purchased Cayman Chemicals
T3 sequence (P05979 25-600): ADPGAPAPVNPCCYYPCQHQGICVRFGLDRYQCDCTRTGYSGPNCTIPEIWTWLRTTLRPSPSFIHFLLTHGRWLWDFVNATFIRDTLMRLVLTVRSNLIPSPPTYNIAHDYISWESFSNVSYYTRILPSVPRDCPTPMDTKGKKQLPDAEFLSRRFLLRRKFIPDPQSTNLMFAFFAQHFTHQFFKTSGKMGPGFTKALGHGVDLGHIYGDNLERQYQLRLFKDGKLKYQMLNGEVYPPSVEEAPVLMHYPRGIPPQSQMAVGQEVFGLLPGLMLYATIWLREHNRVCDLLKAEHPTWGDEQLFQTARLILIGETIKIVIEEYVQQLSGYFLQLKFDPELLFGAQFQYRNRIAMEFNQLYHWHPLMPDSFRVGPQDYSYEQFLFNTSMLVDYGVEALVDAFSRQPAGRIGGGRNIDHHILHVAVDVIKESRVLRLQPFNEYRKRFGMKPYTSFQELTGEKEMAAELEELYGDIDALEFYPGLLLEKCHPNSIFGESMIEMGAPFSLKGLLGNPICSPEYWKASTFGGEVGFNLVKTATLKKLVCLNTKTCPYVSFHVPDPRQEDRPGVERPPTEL
Description: Purified ovine COX-1 (Cayman Chemicals; 50 units) or human recombinant COX-2 (Cayman Chemicals; 20 units) was dissolved in 100 mM Tris buffer pH 8, 5 mM glutathione, 5 μM hemoglobin, and 100 μM EDTA. COX isoenzymes were preincubated with the vehicle (DMSO) or 27a for 5 min at 4 °C and 1 min at 37 °C. Addition of arachidonic acid (COX-1: 5 μM; COX-2: 2 μM) initiated the formation of COX-derived 12(S)-hydroxy-5-cis-8,10-trans-heptadecatrienoic acid (12-HHT), which was extracted and analyzed by RP-HPLC according to 5-LOX products.

12-LOX = biological target: T4, 12-LOX (Homo sapiens, UniProt P18054); experiment: 12-LOX product formation in activated PMNL; type: cell-based
T4 construct: endogenous in cells; host or cells: primary human PMNL
T4 sequence (P18054 whole entry): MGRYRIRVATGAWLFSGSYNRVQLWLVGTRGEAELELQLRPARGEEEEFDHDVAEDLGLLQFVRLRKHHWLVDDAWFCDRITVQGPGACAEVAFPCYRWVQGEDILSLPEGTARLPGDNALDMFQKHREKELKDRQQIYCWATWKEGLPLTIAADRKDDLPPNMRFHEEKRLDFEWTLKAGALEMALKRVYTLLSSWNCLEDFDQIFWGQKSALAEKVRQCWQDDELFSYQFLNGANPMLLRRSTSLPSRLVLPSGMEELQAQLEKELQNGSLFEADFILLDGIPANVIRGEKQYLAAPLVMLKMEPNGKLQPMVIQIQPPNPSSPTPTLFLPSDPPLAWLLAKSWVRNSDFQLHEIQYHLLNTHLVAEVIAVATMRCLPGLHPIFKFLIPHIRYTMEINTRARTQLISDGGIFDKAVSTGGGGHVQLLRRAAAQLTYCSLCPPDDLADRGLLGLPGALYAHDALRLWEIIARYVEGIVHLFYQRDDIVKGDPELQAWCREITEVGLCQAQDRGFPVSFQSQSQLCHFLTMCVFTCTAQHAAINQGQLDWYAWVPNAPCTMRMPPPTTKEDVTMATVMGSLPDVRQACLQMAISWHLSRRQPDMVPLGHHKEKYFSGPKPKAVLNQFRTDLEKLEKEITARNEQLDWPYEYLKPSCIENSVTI
Description: Freshly isolated PMNL (5 × 10^6) suspended in PBS pH 7.4 with 1 mg/mL glucose or freshly withdrawn human whole blood were preincubated with the test compounds for 10 min (or as indicated) at 37 °C. […] The reaction was stopped with an equal volume of methanol.

PBMC = PBMC viability (MTT, mitochondrial dehydrogenase activity); type: cell-based, human; details: ≤1 μM, 24 h
Description: (§1) To measure mitochondrial dehydrogenase activity, 3-(4,5-dimethylthiazol-2-yl)-2,5-diphenyltetrazolium bromide (MTT) (20 μL, 5 mg/mL, Sigma-Aldrich) was added to PBMC. After 4 h in the darkness, the formed formazan product was solubilized (10% SDS in 20 mM HCl) and the absorbance was read at 570 nm using a Multiskan Spectrum microplate reader (Thermo Fisher Scientific).[81]

5-LOX = biological target: T5, 5-LOX (Homo sapiens, UniProt P09917); experiment: Tryptophan fluorescence spectroscopy of 5-LOX; type: binding; set-up: made in house; host or cells: E. coli Bl21 (DE3); details: 5-LOX titrated with compound, 0–10 μM
T5 sequence (P09917 1-674): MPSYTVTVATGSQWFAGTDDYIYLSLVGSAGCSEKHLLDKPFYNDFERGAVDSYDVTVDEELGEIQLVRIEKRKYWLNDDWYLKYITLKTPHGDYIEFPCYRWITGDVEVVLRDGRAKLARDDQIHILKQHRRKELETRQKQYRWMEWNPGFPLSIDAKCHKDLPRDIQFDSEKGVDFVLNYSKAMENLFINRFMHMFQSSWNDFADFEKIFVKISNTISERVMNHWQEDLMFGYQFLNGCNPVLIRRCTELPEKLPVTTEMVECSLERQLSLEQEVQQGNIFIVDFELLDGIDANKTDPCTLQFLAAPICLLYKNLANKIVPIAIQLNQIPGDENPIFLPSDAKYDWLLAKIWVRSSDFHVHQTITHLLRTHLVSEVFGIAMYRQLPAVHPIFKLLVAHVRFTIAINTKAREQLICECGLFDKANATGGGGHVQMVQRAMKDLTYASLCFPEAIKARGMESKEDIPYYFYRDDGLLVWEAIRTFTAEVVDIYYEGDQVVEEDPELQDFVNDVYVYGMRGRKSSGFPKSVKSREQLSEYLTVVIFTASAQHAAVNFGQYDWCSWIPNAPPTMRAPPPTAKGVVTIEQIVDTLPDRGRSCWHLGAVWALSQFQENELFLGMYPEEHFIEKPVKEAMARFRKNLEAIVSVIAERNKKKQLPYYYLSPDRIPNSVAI
Description: Fluorescence spectroscopy measurements on human recombinant 5-LOX (Abcam, Cambridge, U.K.) were conducted in PBS pH 7.4 at 25 °C using an Edinburgh Instruments FLS920 Series fluorescence spectrophotometer (Livingston, U.K.). […] The concentration range of 5-LOX used through the experiments was 0.3–0.6 μM. 5-LOX was titrated with a stock solution of the test compounds in dimethylformamide to yield an experimental compound concentration in the range of 0–10 μM. The final dimethylformamide concentration was kept under 5%. After each addition, the sample was incubated for 10 min before measurement. The fluorescence emission intensity values were corrected for dilution and background noise. All conditions were measured independently and in duplicate.
The fluorescence spectral shifts were analyzed by monitoring the alterations in the spectral center of mass by estimating the intensity-averaged emission wavelength (⟨λ⟩), as calculated from the following equation, where Fi is the fluorescence emission intensity at wavenumber νi, and the summation was performed over the range of measured F values [drawing 1] 1

monocytes = experiment: Monocyte membrane integrity (LDH release); type: cell-based, human; details: higher concentrations (>1 μM)
Description: as §1
LDH release was measured in monocytes using a CytoTox 96 nonradioactive cytotoxicity assay (Promega, Madison, WI) according to the manufacturer’s instruction using Triton X-100 (0.8%) as the maximum LDH release control.

T1 sequence (P34913 whole entry): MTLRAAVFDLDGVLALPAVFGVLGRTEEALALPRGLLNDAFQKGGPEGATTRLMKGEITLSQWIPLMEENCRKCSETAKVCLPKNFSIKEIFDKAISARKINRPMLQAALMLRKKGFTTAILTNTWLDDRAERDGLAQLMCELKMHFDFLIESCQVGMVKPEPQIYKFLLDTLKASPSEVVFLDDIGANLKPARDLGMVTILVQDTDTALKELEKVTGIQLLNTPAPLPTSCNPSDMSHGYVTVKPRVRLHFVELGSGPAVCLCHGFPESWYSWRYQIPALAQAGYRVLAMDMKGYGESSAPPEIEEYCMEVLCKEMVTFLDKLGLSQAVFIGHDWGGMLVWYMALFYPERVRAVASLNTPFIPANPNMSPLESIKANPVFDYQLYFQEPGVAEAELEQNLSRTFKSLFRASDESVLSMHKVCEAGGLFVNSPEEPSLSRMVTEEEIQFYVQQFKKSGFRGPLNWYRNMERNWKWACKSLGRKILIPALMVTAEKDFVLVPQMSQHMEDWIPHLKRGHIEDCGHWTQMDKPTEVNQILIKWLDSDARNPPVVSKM

C/C(=C\CC/C(C)=C/CC[C@]1(C)CCc2c(C)c(O)c(C)c(C)c2O1)CCC=C(CO)CO [Compound 27a, α-amplexichromanol]
sEH inhibition (human recombinant sEH): not substantially inhibited
COX-1 inhibition within human platelets (COX-1): not substantially inhibited
Cytotoxic effects on human keratinocytes (human keratinocytes): excluded
COX-1 inhibition (isolated ovine enzyme) (ovine COX-1): not substantially inhibited
12-LOX inhibition (12-LOX): not substantially inhibited
Mitochondrial dehydrogenase activity in PBMC (cell viability) (PBMC): impaired neither mitochondrial dehydrogenase activity
Shift of spectral center of mass of intrinsic Trp fluorescence of 5-LOX (5-LOX): less pronounced
LDH release from monocytes at higher concentrations (monocytes): induced a rapid release of lactate dehydrogenase
